The values below come from patent publication EP2325185A1, “Plk inhibitor” (GPC Biotech AG, priority 2009, dated 2011).

Like-named read-outs stand apart in the source and are kept apart here.

The subject of data set [1] is MDA-MB-231. Briefly: SRB cell proliferation assay, MDA-MB-231. The class given is cell-based. Conditions: Homo sapiens; MDA-MB-231 (breast); compound 1 tested in racemic mixture. Here is the method:
(§1) Cells were exposed to the test compound racemate at various concentrations appropriate to determine an IC50 for 72 hours. Cell proliferation was measured using the SRB assay according to Shekan et al (J Natl Cancer Inst (1990) 82, 1107-112) in order to estimate the IC50 values shown in Table 3. Briefly, cells were plated in 96 well dishes 24 hours prior to compound addition at the densities specified in Table 5.1. The assay was terminated with the addition of cold TCA to a final concentration of 10% after growth medium has been removed and the plates were incubated over night at 4°C. The plates were then washed 5 times with water and 100µl of a Sulforhodamine B solution ([…]) was added to each well. The plates were then incubated for 10 minutes at room temperature before removal of unbound dye by washing with 1% acetic acid. The bound dye was solubilised with 10 mM Trizma base and the absorbance read at OD520.
(§2) Inhibitory activity of the compound (IC) was calculated as % inhibition of cell proliferation compared to cells treated with the solvent (DMSO).
(§3) Table 8.1: 18-Cell Line Panel

For data set [2], the system named is SK-MEL-28. The experiment in a line: SRB cell proliferation assay, SK-MEL-28. The class given is cell-based. Particulars: Homo sapiens; SK-MEL-28 (melanoma); compound 1 tested in racemic mixture. The method, then: as §1, §2, §3
Data set [3] relates to HeLa. Briefly: SRB cell proliferation assay, HeLa. In kind it is cell-based. Particulars: Homo sapiens; HeLa (cervix); compound 1 tested in racemic mixture. The method, then: as §1, §2, §3
Data set [4] deals with NCI-H460. Briefly: SRB cell proliferation assay, NCI-H460. In kind it is cell-based. Particulars: Homo sapiens; NCI-H460 (NSCLC); compound 1 tested in racemic mixture. Here is the method:
as §1, §2, §3

Data set [5] has as its system A-375. Briefly: SRB cell proliferation assay, A-375. The class given is cell-based. Particulars: Homo sapiens; A-375 (melanoma); compound 1 tested in racemic mixture. The method, then:
as §1, §2, §3

Data set [6] deals with HCT 116. The experiment in a line: SRB cell proliferation assay, HCT 116. In kind it is cell-based. Particulars: Homo sapiens; HCT 116 (colon); compound 1 tested in racemic mixture; read-out: IC50. The method, then: as §1, §2, §3
Data set [7] has as its system COLO 205. The experiment in a line: SRB cell proliferation assay, COLO 205. Particulars: Homo sapiens; COLO 205 (colon); compound 1 tested in racemic mixture. In kind it is cell-based. Here is the method: as §1, §2, §3
Data set [8] concerns MDA-MB-468. The experiment in a line: SRB cell proliferation assay, MDA-MB-468. In kind it is cell-based. Particulars: MDA-MB-468 (breast), compound 1 tested in racemic mixture. The method, then:
as §1, §2, §3

Data set [9] concerns ACHN. The experiment in a line: SRB cell proliferation assay, ACHN. The class given is cell-based. Conditions: Homo sapiens; ACHN (kidney); compound 1 tested in racemic mixture. The method, then: as §1, §2, §3
The test system of data set [10] is PC-3. The experiment in a line: SRB cell proliferation assay, PC-3. In kind it is cell-based. Particulars: Homo sapiens; PC-3 (prostate); compound 1 tested in racemic mixture. The method, then: as §1, §2, §3
The test system of data set [11] is HT-29. Briefly: SRB cell proliferation assay, HT-29. The class given is cell-based. Conditions: Homo sapiens; HT-29 (colon); compound 1 tested in racemic mixture; read-out: IC50. The method, then: as §1, §2, §3
Data set [12] deals with A-431. The experiment in a line: SRB cell proliferation assay, A-431. The class given is cell-based. Conditions: Homo sapiens; A-431 (skin); compound 1 tested in racemic mixture. The method, then:
as §1, §2, §3

For data set [13], the system named is OVCAR-3. Briefly: SRB cell proliferation assay, OVCAR-3. In kind it is cell-based. Particulars: Homo sapiens; OVCAR-3 (ovary); compound 1 tested in racemic mixture. Here is the method:
as §1, §2, §3

Data set [14] deals with IMR-90. The experiment in a line: SRB cell proliferation assay, IMR-90. The class given is cell-based. Conditions: Homo sapiens; IMR-90 (lung); compound 1 tested in racemic mixture; read-out: IC50. The method, then: as §1, §2, §3
The test system of data set [15] is A549. The experiment in a line: SRB cell proliferation assay, A549. The class given is cell-based. Particulars: Homo sapiens; A549 (lung); compound 1 tested in racemic mixture. The method, then:
as §1, §2, §3

Data set [16] deals with SW620. The experiment in a line: SRB cell proliferation assay, SW620. The class given is cell-based. Conditions: Homo sapiens, SW-620; SW620 (colon); compound 1 tested in racemic mixture. Here is the method:
as §1, §2, §3

Data set [17] relates to SK-MEL-5. The experiment in a line: SRB cell proliferation assay, SK-MEL-5. Particulars: Homo sapiens; SK-MEL-5 (melanoma); compound 1 tested in racemic mixture. In kind it is cell-based. The method, then:
as §1, §2, §3

In data set [18] the test system is DU 145. Briefly: SRB cell proliferation assay, DU 145. The class given is cell-based. Particulars: Homo sapiens; DU 145 (prostate); compound 1 tested in racemic mixture. Here is the method: as §1, §2, §3
The subject of data set [19] is NCI-H460 tumor cells. The experiment in a line: Mouse xenograft model using human NCI-H460 cells. Particulars: for mean body weight / mean body weight change: end of day four after begin of treatment; for mice died: mouse, in vivo. The class given is in vivo. The method, then:
[…]. Human HT-29 cells (ATCC) colon carcinoma cell line are cultured in McCoy's medium (ATCC) supplied with 10% FCS and 1% Pen/Strep. The 2nd passage of cells with approximately 80% confluence is used in the study. Briefly, on Day 0, mice are inoculated with 0.1 ml (total 5x10^6 cells) of HT-29 cell suspension (50x10^6 cells/ml in McCoy's medium without supplements mixed 1:1 with Matrigel) by a subcutaneous injection into the lower right flank under light anesthesia. When the average tumor weights reaches above 100mg, animals with an appropriate tumor size are selected and are randomly divided into treatment groups (10 animals each).
Tumor growth and body weight are monitored and recorded twice a week. Tumors are measured by determining the length and width of the tumor with a digital caliper. Tumor weight is estimated using the following formula: Tumor Weight (mg) = (w^2 x 1) / 2 where w = width and I = length in mm of the tumor.
Toxic deaths are defined as deaths caused by compound treatment and not by advanced disease state. […].
In a model similar to the one described in a), mice were inoculated with NCI-H460 tumor cells, and treated (9 mice for each treatment group) with either vehicle only (NMP:PEG300), compound 1 (70 mg/kg once per week), compound 1 (35 mg/kg twice per week), BI 6727 (70 mg/kg once per week) and gemcitabine (25 mg/kg, once per week) (vivoPharm Europe Limited, Munich, Germany). At the end of day four after begin of treatment, the mean body weight for the compound 1 treatment groups had dropped from 20.5 g to 19.2 g (~5%; standard deviation 2.6 g), and from 20.1 g to 19.3 g (-4%; standard deviation 0.9 g), respectively, and one mouse in the high-dose treatment group had died. In contrast, in the BI 6727 treatment group, the mean body weight had dropped from 20.2 g to 16.2 g (-20%; standard deviation 1.5 g), five mice had died and the remaining mice had to be killed for ethical reasons.
A general note: Xenograft models place foreign cells or tissue in a host animal.

Data set [20] addresses Plk1 (Homo sapiens, UniProt P53350). The experiment in a line: Standard selectivity panel (ProQinase), Plk1. The class given is biochemical. On the set-up: purchased ProQinase GmbH, Freiburg, Germany. Particulars: duplicates, read-out: inhibited Plk1. Here is the method: (§4) The compound of the present invention was tested in a standard selectivity panel including Plkl and 255 other kinases (ProQinase GmbH, Freiburg, Germany), under conditions of non-disclosure, non-dissemination and non-use.
(§5) In brief, compound 1 (see Table 1) was tested at 1 µM in duplicates against Plk1 as well as against 255 other protein kinases, including Abl, Aktl, Aur A, Kit, Raf-1, Cdkl/CycB1, Chk1, FGF-R3, Flt3, Fyn, IGF1-R, INS-R, Lyn, p38a, PAK4, PKCalpha, Ret, ROCK2, Src, TIE2, and VEGF-R2. The test compound 1 inhibited Plk1 by more than about 90%, only three other kinases were inhibited by between about 50% and about 90%, about 13 kinases by between about 10% and about 50%, and all other kinases were inhibited by less than about 10%.

The subject of data set [21] is panel of 57 tumor cell lines. Briefly: Panel of 57 tumor cell lines (OncoLead), growth inhibition. The class given is cell-based. The method, then:
In a similar experiment, the inhibitory activity of compound 1 was tested against a panel of 57 tumor cell lines (OncoLead GmbH&Co.KG, Martinsried, Germany) under conditions of non-disclosure, non-dissemination and non-use.
In 18 cell lines, the GI50 value was between 1 µM and 0.1 µM, and in 31 cell lines, the GI50 value was below 0.1 µM.

For data set [22], the system named is 255 other protein kinases. The experiment in a line: Standard selectivity panel (ProQinase), 255 other kinases. The class given is biochemical. Conditions: 1 µM, duplicates; all other kinases. Here is the method:
as §4, §5

Sequence of Plk1 (P53350 whole entry, species assumed): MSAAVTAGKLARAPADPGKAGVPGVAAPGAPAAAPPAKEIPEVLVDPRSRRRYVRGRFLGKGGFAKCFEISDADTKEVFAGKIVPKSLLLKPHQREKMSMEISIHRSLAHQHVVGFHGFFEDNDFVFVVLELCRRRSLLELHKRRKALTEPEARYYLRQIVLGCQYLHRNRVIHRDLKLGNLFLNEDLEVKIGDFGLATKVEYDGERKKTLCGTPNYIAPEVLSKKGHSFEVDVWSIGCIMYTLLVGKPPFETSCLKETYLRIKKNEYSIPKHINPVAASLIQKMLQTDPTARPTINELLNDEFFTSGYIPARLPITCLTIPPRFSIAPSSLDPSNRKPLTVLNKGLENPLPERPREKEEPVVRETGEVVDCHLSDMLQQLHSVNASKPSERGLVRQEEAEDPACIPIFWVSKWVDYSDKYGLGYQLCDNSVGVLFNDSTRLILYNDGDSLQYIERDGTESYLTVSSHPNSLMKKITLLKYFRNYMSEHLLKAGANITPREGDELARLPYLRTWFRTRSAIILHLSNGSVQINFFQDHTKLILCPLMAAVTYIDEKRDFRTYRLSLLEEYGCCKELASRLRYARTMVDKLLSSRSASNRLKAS

Regarding `CC[C@@H]1C(=O)N(C)c2cnc(Nc3ccc(C(=O)NC4CCN(C)CC4)cc3OC)nc2N1C1CCCC1` [BI 2536, reference compound], the IC50 in [1], in [2], in [3], in data set [4], in [5] and in [6] was under 1000 nM each time. For the same compound, the IC50 (in general, the concentration that inhibits the measured activity by half) is under 1000 nM in [7]; “plateau at ∼50%” in data set [8]; under 1000 nM in data set [9]; under 1000 nM in data set [10]; under 1000 nM in [11]; under 1000 nM in data set [12]. For the same compound, the IC50 in data set [13] was under 1000 nM; in data set [14] it was over 1000 nM; in data set [15] it was under 1000 nM; in data set [16] it was under 1000 nM; in data set [17], under 1000 nM; in [18], under 1000 nM.

As to `CC[C@@H]1C(=O)N(C)c2cnc(Nc3ccc(C(=O)N[C@H]4CC[C@H](N5CCN(CC6CC6)CC5)CC4)cc3OC)nc2N1C(C)C` [BI 6727, reference compound], in data set [19] (70 mg/kg once per week), the mean body weight turned out to be 16.2 g and the “mean body weight change” value is -20%. In data set [19], the mice died result is recorded as “five”.

In the case of `CC[C@@H]1C(=O)N(C)c2cnc(Nc3ccc(C(=O)N[C@H]4CC[C@H](N5CCN(CC6CC6)CC5)CC4)cc3OC)nc2N1N(C)C` [Compound 1, (7R)-N-[trans-4-(4-Cyclopropylmethyl-piperazin-1-yl)-cyclohexyl]-4-(8-dimethylamino-7-ethyl-5-methyl-6-oxo-5,6,7,8-tetrahydro-pteridin-2-ylamino)-3-methoxy-benzamide], the IC50 in [1] is under 1000 nM; in [2] it was over 1000 nM; in [3], under 1000 nM; in data set [4], under 1000 nM; in data set [5], under 1000 nM; in data set [6], under 1000 nM. The IC50 was under 1000 nM in [7]; over 1000 nM in [8] (Homo sapiens, read-out: IC50); under 1000 nM in [9]; under 1000 nM in [10]; under 1000 nM in data set [11]; under 1000 nM in [12]. For the same compound, the IC50 was under 1000 nM in data set [13]; over 1000 nM in data set [14]; under 1000 nM in [15]; under 1000 nM in data set [16]; under 1000 nM in data set [17]; under 1000 nM in data set [18]. For the same compound, the values for the mean body weight in data set [19] (35 mg/kg twice per week) and in data set [19] (70 mg/kg once per week) were 19.3 g and 19.2 g, respectively. Further, the “mean body weight change” value in [19] (35 mg/kg twice per week) is given as -4%; in data set [19] (70 mg/kg once per week), ~ 5%. Further, the tumor growth result in [19] (70 mg/kg once per week and 35 mg/kg twice per week, compared with vehicle only or gemcitabine groups) is “a reduction of tumor growth could be observed”. Moreover, in data set [19], the mice died entry is given as “one”. Further, the inhibition at 1 µM in [20] was over 90%. Besides, the figures for the concentration for 50% growth inhibition (GI50) in [21] (in 18 cell lines of 57), in [21] (in 31 cell lines of 57) and in [21] (in about 49 cell lines of 57) were 100 to 1000 nM, under 100 nM and under 1000 nM, respectively. Besides, the kinases inhibited entry in data set [22] is on record as “less than 10%”.
